Laboratory results as given in patent US7964596B2, “Therapeutic compounds” (Allergan, Inc., priority 2008, dated 2011).
“Also recorded” adds a separate entry of the source.

Test system: lashes and adjacent hairs of patients having glaucoma
Experiment: Observation of lashes and adjacent hairs in glaucoma patients treated in only one eye
Format: in vivo, human
Conditions: glaucoma patients taking the drug in only one eye; gross inspection and slit lamp biomicroscope
Source text: In the course of treating patients having glaucoma, treatment may only be appropriate in one eye. […] The lash appearance on the lids of the treated eyes would have appeared quite attractive if it represented a bilateral phenomenon. As a result of its asymmetric nature, the long lashes on one side could be construed as disturbing from a cosmetic standpoint. A systemic examination was preformed as a result of the asymmetric phenomenon. It soon became apparent that this altered appearance was not an isolated finding. […] Definite differences could be identified to varying degrees in the lashes and adjacent hairs of all patients who were taking the drug on a unilateral basis for longer than 6 months.
The changes in the lashes were apparent on gross inspection in several patients once attention was focused on the issue. In those with light colored hair and lashes, the differences were only seen easily with the aid of the high magnification and lighting capabilities of the slit lamp biomicroscope. In the course of glaucoma follow-up examination, attention is generally immediately focused on the eye itself. As a result of the high power magnification needed only one eye is seen at a time and the eye is seen at a high enough power that the lashes are not in focus. […]

`CCNC(=O)CCC/C=C\C[C@@H]1[C@@H](/C=C/[C@@H](O)CCc2ccccc2)[C@H](O)C[C@@H]1O` [bimatoprost] was tested, and the “lash / hair growth in treated eye versus non-treated eye” value was “longer, thicker, and fuller in the treated eye than in the non-treated eye; also recorded: hair growth is stimulated”.
